Test system: spring wheat of “Lubava” variety
Assay: Field tests of DMOA and DEOA on wheat
Assay type: in vivo
Settings: for Effect on wheat growth, yield and quality (in words): aqueous solutions in the proposed concentrations, field test under stress (abundant rainfalls)
Experimental: After that DMOA and DEOA were separately dissolved in dimethyl sulfoxide to give solutions of 10 g/L concentration, then water was added to give aqueous solutions of DMOA with the concentrations of 5.5·10^−8 M, 5.5·10^−9 M, 1.8·10^−9 M, 5.5·10^−10 M, 1.8·10^−10 M, 1.8·10^−11 M, and DEOA with the concentrations of 4.8·10^−8 M, 4.8·10^−9 M, […], 4.8·10^−10 M, 1.6·10^−10 M, 1.6·10^−11 M.
The field tests of the obtained aqueous solutions of DMOA and DEOA on spring wheat of “Lubava” variety were carried out. The tests were carried out in agroclimatic zone I, on the experimental field of the Grain Crops Protection Systems Laboratory of the Agricultural Research Center of Federal State Budgetary Scientific Institution “Moscow Research Institute of Agriculture” “Nemchinovka” “(Moscow Region, Odintsovo district, settlement Novoivanovskaya, 2015) according to the method adopted for registration tests of plant growth regulators (Guidelines for conducting registration tests of new forms of fertilizers, bioregulators and plant regulators. Moscow-Vladimir, 2009, p. 104; The method of state variety testing of agricultural crops. Grain, cereal, grain legumes and forage crops. Issue 1, Moscow, 1985, page 269, Issue 2, Moscow, 1989, p. 194; OST 10-108-87; GOST 26212-91; GOST-91).
The soil of the experimental field is sod-podzolic on clay loam mantle.
Tests were conducted starting from Apr. 29 to Jul. 30, 2015. In the first half of the growing period the weather conditions were unfavorable (abundant rainfalls in May and June), which is a significant stress factor.
Control test—without growth regulators treatment.
Area of experimental plots—100 m^2, accounting area—50 m^2. Fourfold replication of the experiments.
Preceding crop was winter wheat. Immediately after the autumn harvesting of winter crops the area was treated with disc harrow to a depth of 10-12 cm. Then, fall plowing to a depth of 18-20 cm by a reverse plow, harrowing, and moisture conservation were carried out.
Before seeding the test crop, the soil was fertilized with nitrogen-phosphorus-potassium fertilizer in a dose of N64P64K64. Date of sowing: Apr. 29, 2015 Seeding rate: 5.0 million of germinated grains per 1 hectare.
Before seeding, all the seeds were treated with “Vincite Forte” fungicide with a consumption rate of 1.0 L per ton of seeds, as well as the aqueous solution of DMOA or DEOA selected for the experiment with a consumption rate of 10 L per ton of seeds (this aqueous solution was directly used as a liquid for treatment) or without a growth regulator, depending on the experiment. The following concentrations of the test solutions were used for treatment: 5.5·10^−8 M, 5.5·10^−9 M and 5.5·10^−10 M of DMOA; 4.8·10^−8 M, 4.8·10^−9 M and 4.8·10^−10 M of DEOA.
At the tillering phase (May 23) the crops were sprayed against weeds with “Linthur” herbicide at a dose of 175.0 g/ha, pesticides “BI-58 Novy” were used against pests at a dose of 0.5 L/ha, and against the leaf-stems diseases the crops were sprayed at the early ear emergence stage (June 20) with “Alto Super” fungicide at a dose of 0.5 L/ha together with aqueous solutions of DMOA or DEOA (or without them). Spraying with aqueous solutions of DMOA or DEOA allows to additionally stimulate plant growth. In this case the dosage of aqueous solutions of DMEA or DEOA was 300 L/ha (these solutions were sprayed directly). Spraying with aqueous solutions of DMEA and DEOA was carried out for all variants, where DMOA and DEOA were used for seed treatment. The concentration of the spraying solution was one-thirtieth of the concentration of the solution previously used for treatment of seeds. Accordingly, for DMOA: 1.8·10^−9 M, 1.8·10^−10 M, 1.8·10^−11 M; and for DEOA: 1.6·10^−9 M, 1.6·10^−10 M, 1.6·10^−11 M.
Harvesting of experimental plots was carried out on July 30, before harvesting test sheaves of 0.25 m^2 of each variant of the experiment were taken for structural analysis. […]

[1] = seeds treated 4.8 · 10^−8M, sprayed 1.6·10^−9 M
[2] = seeds treated 4.8 · 10^−9M, sprayed 1.6·10^−10 M
[3] = seeds treated 4.8 · 10^−10M, sprayed 1.6·10^−11 M
[4] = seeds treated 5.5 · 10^−8M, sprayed 1.8·10^−9 M
[5] = seeds treated 5.5 · 10^−9M, sprayed 1.8·10^−10 M
[6] = seeds treated 5.5 · 10^−10M, sprayed 1.8·10^−11 M

Compound: CCOC(=O)C=C([O-])C(=O)OCC.[Na+] [DEOA, sodium salt of diethyl ester of oxaloacetic acid]
- Effect on wheat growth, yield and quality (in words): express ability to stimulate growth, increase yield and quality of wheat
- 1000 grains weight [1]: 48.15 g
- Gluten [1]: 31.85 % dry basis
- Main head length [1]: 8.6 cm
- Number of grains from main head [1]: 39 pcs
- Number of stems [1]: 612 pcs/m^2
- Plant height [1]: 101.7 cm
- Productive tilling capacity [1]: 1.34
- Protein (N 5.7) [1]: 14.88 % dry basis
- Starch [1]: 61.15 % dry basis
- Weight of grains from main head [1]: 1.91 g
- Yield [1]: 5.50 t/ha
- Yield, % (comparing to control) [1]: 112.7%
- 1000 grains weight [2]: 46.88 g
- Gluten [2]: 32.91 % dry basis
- Main head length [2]: 9.2 cm
- Number of grains from main head [2]: 41 pcs
- Number of stems [2]: 408 pcs/m^2
- Plant height [2]: 99.4 cm
- Productive tilling capacity [2]: 1.33
- Protein (N 5.7) [2]: 14.95 % dry basis
- Starch [2]: 61.43 % dry basis
- Weight of grains from main head [2]: 1.96 g
- Yield [2]: 5.32 t/ha
- Yield, % (comparing to control) [2]: 109.0%
- 1000 grains weight [3]: 48.38 g
- Gluten [3]: 31.61 % dry basis
- Main head length [3]: 10.8 cm
- Number of grains from main head [3]: 51 pcs
- Number of stems [3]: 324 pcs/m^2
- Plant height [3]: 104.3 cm
- Productive tilling capacity [3]: 1.69
- Protein (N 5.7) [3]: 14.14 % dry basis
- Starch [3]: 61.60 % dry basis
- Weight of grains from main head [3]: 2.65 g
- Yield [3]: 5.00 t/ha
- Yield, % (comparing to control) [3]: 102.5%

Compound: Sodium salt of dimethyl ester of oxaloacetic acid [DMOA]
- Effect on wheat growth, yield and quality (in words): express ability to stimulate growth, increase yield and quality of wheat
- 1000 grains weight [4]: 46.22 g
- Gluten [4]: 33.64 % dry basis
- Main head length [4]: 8.7 cm
- Number of grains from main head [4]: 36 pcs
- Number of stems [4]: 420 pcs/m^2
- Plant height [4]: 101.5 cm
- Productive tilling capacity [4]: 1.57
- Protein (N 5.7) [4]: 14.88 % dry basis
- Starch [4]: 61.54 % dry basis
- Weight of grains from main head [4]: 1.76 g
- Yield [4]: 6.44 t/ha
- Yield, % (comparing to control) [4]: 131.9%
- 1000 grains weight [5]: 47.07 g
- Gluten [5]: 34.71 % dry basis
- Main head length [5]: 8.9 cm
- Number of grains from main head [5]: 37 pcs
- Number of stems [5]: 752 pcs/m^2
- Plant height [5]: 105.1 cm
- Productive tilling capacity [5]: 1.21
- Protein (N 5.7) [5]: 14.92 % dry basis
- Starch [5]: 61.72 % dry basis
- Weight of grains from main head [5]: 1.79 g
- Yield [5]: 6.49 t/ha
- Yield, % (comparing to control) [5]: 133.0%
- 1000 grains weight [6]: 46.51 g
- Gluten [6]: 33.81 % dry basis
- Main head length [6]: 8.8 cm
- Number of grains from main head [6]: 37 pcs
- Number of stems [6]: 396 pcs/m^2
- Plant height [6]: 104.1 cm
- Productive tilling capacity [6]: 1.48
- Protein (N 5.7) [6]: 14.73 % dry basis
- Starch [6]: 61.27 % dry basis
- Weight of grains from main head [6]: 1.71 g
- Yield [6]: 6.41 t/ha
- Yield, % (comparing to control) [6]: 131.4%

From patent US20190119193A1, “COMPOSITION FOR REGULATING PLANT GROWTH, METHOD FOR TREATING PLANTS THEREWITH, AND ACTIVE INGREDIENT THEREOF” (Ivan Aleksandrovich Starikov, priority 2016, published 2019)
